Results reported in US20100317647A1 (priority 2009, published 2010).

These compounds were tested against human Cat S (Homo sapiens, UniProt P25774) (assay: Cathepsin enzyme inhibition assay (fluorogenic peptide substrate cleavage)). Details: human Cat S 1 nM; substrate Z-Val-Val-Arg-AMC 20 μM; pH 6.5; fluorescence over 20 minutes.
Type: biochemical
Outline: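 Fluorogenic cleavage of Z-Val-Val-Arg-AMC (20 μM) by 1 nM enzyme in 100 mM potassium phosphate pH 6.5, 5 mM EDTA, 5 mM DTT, 0.001% Triton X-100. Reaction started with substrate; fluorescence (ex 360/em 465 nm) followed over 20 minutes. IC50 by standard methods.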

Sequence of human Cat S (P25774 115-331): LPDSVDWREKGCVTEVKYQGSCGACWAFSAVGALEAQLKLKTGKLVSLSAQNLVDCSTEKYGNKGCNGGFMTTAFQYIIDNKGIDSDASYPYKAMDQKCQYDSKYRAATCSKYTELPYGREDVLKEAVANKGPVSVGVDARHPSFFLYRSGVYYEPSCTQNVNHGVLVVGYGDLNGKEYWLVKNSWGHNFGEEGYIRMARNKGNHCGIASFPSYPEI

SMILES | IC50 [nM]
Cn1cc(-c2ccc(S(=O)(=O)[C@H]3C[C@@H](OC4CCC4)[C@H](C(=O)NC4(C#N)CC4)C3)c(C(F)(F)F)c2)cn1 (racemic) [Example 211, (1R,2R,4R) and (1S,2S,4S)-2-Cyclobutoxy-4-[4-(1-methyl-1H-pyrazol-4-yl)-2-trifluoromethyl-benzenesulfonyl]-cyclopentanecarboxylic acid (1-cyano-cyclopropyl)-amide] | 0.255
Cc1cc(-c2ccc(S(=O)(=O)[C@H]3C[C@@H](OC4CCCC4)[C@H](C(=O)NC4(C#N)CC4)C3)c(C(F)(F)F)c2)ccn1 (racemic) [Example 212, (1R,2R,4R) and (1S,2S,4S)-2-Cyclopentyloxy-4-[4-(2-methyl-pyridin-4-yl)-2-trifluoromethyl-benzenesulfonyl]-cyclopentanecarboxylic acid (1-cyano-cyclopropyl)-amide] | 0.215
Cn1cc(-c2ccc(S(=O)(=O)[C@H]3C[C@@H](OC4CCCC4)[C@H](C(=O)NC4(C#N)CC4)C3)c(C(F)(F)F)c2)cn1 (racemic) [Example 213, (1R,2R,4R) and (1S,2S,4S)-2-Cyclopentyloxy-4-[4-(1-methyl-1H-pyrazol-4-yl)-2-trifluoromethyl-benzenesulfonyl]-cyclopentanecarboxylic acid (1-cyano-cyclopropyl)-amide] | 0.16
CO[C@@H]1C[C@H](S(=O)(=O)c2ccc(-c3cnn(CC4(C)COC4)c3)cc2C(F)(F)F)C[C@H]1C(=O)NC1(C#N)CC1 (racemic) [Example 214, (1R,2R,4R) and (1S,2S,4S)-2-Methoxy-4-{4-[1-(3-methyl-oxetan-3-ylmethyl)-1H-pyrazol-4-yl]-2-trifluoromethyl-benzenesulfonyl}-cyclopentanecarboxylic acid (1-cyano-cyclopropyl)-amide] | 2.85
CO[C@@H]1C[C@H](S(=O)(=O)c2ccc(N3CCN(C4CC4)CC3)cc2C(F)(F)F)C[C@H]1C(=O)NC1(C#N)CC1 (racemic) [Example 215, (1R,2R,4R) and (1S,2S,4S)-4-[4-(4-Cyclopropyl-piperazin-1-yl)-2-trifluoromethyl-benzenesulfonyl]-2-methoxy-cyclopentanecarboxylic acid (1-cyano-cyclopropyl)-amide] | 6.6
CNC(=O)Cn1cc(-c2ccc(S(=O)(=O)[C@H]3C[C@@H](OC)[C@H](C(=O)NC4(C#N)CC4)C3)c(C(F)(F)F)c2)cn1 (racemic) [Example 216, (1R,2R,4R) and (1S,2S,4S)-2-Methoxy-4-[4-(1-methylcarbamoylmethyl-1H-pyrazol-4-yl)-2-trifluoromethyl-benzenesulfonyl]-cyclopentanecarboxylic acid (1-cyano-cyclopropyl)-amide] | 1.6
CO[C@@H]1C[C@H](S(=O)(=O)c2ccc(N3CCN(C(C)=O)CC3)cc2C(F)(F)F)C[C@H]1C(=O)NC1(C#N)CC1 (racemic) [Example 217, (1R,2R,4R) and (1S,2S,4S)-4-[4-(4-Acetyl-piperazin-1-yl)-2-trifluoromethyl-benzenesulfonyl]-2-methoxy-cyclopentanecarboxylic acid (1-cyano-cyclopropyl)-amide] | 1.03
CO[C@@H]1C[C@H](S(=O)(=O)c2ccc(-c3cnn(CC(=O)N(C)C)c3)cc2C(F)(F)F)C[C@H]1C(=O)NC1(C#N)CC1 (racemic) [Example 218, (1R,2R,4R) and (1S,2S,4S)-4-[4-(1-Dimethylcarbamoylmethyl-1H-pyrazol-4-yl)-2-trifluoromethyl-benzenesulfonyl]-2-methoxy-cyclopentanecarboxylic acid (1-cyano-cyclopropyl)-amide] | 0.92
N#CC1(NC(=O)[C@@H]2C[C@@H](S(=O)(=O)c3ccccc3C(F)(F)F)C[C@H]2OC2CCS(=O)(=O)CC2)CC1 (racemic) [Example 219, (1R,2R,4R) and (1S,2S,4S)-2-[(tetrahydro-1,1-dioxo-2H-thiopyran-4-yl)oxy]-4-(2-trifluoromethyl-benzenesulfonyl)-cyclopentanecarboxylic acid (1-cyano-cyclopropyl)-amide] | 6.77
N#CC1(NC(=O)[C@@H]2C[C@@H](S(=O)(=O)c3ccccc3C(F)(F)F)C[C@H]2OC2CCC2)CC1 (racemic) [Example 220, (1R,2R,4R) and (1S,2S,4S)-2-Cyclobutoxy-4-(2-trifluoromethyl-benzenesulfonyl)-cyclopentanecarboxylic acid (1-cyano-cyclopropyl)-amide] | 3.6
N#CC1(NC(=O)[C@@H]2C[C@@H](S(=O)(=O)c3ccccc3C(F)(F)F)C[C@H]2OC2CCCC2)CC1 (racemic) [Example 221, (1R,2R,4R) and (1S,2S,4S)-2-Cyclopentyloxy-4-(2-trifluoromethyl-benzenesulfonyl)-cyclopentanecarboxylic acid (1-cyano-cyclopropyl)-amide] | 8.35
N#CC1(NC(=O)[C@@H]2C[C@@H](S(=O)(=O)c3ccccc3Cl)C[C@H]2OCc2ccc(Cl)cc2)CC1 (racemic) [Example 222, (1R,2R,4R) and (1S,2S,4S)-4-(2-Chloro-benzenesulfonyl)-2-(4-chloro-benzyloxy)-cyclopentanecarboxylic acid (1-cyano-cyclopropyl)-amide] | 5.8
CCNC(=O)Cn1cc(-c2ccc(S(=O)(=O)[C@H]3C[C@@H](OC)[C@H](C(=O)NC4(C#N)CC4)C3)c(C(F)(F)F)c2)cn1 (racemic) [Example 223, (1R,2R,4R) and (1S,2S,4S)-4-[4-(1-Ethylcarbamoylmethyl-1H-pyrazol-4-yl)-2-trifluoromethyl-benzenesulfonyl]-2-methoxy-cyclopentanecarboxylic acid (1-cyano-cyclopropyl)-amide] | 0.31
CC(C)N1CCN(c2ccc(S(=O)(=O)[C@H]3C[C@@H](OC4CCCC4)[C@H](C(=O)NC4(C#N)CC4)C3)c(C(F)(F)F)c2)CC1 (racemic) [Example 229, (1R,2R,4R) and (1S,2S,4S)-2-Cyclopentyloxy-4-[4-(4-isopropyl-piperazin-1-yl)-2-trifluoromethyl-benzenesulfonyl]-cyclopentanecarboxylic acid (1-cyano-cyclopropyl)-amide] | 0.007
N#CC1(NC(=O)[C@@H]2C[C@@H](S(=O)(=O)c3ccc(N4CCN(CC(F)(F)F)CC4)cc3C(F)(F)F)C[C@H]2OC2CCCC2)CC1 (racemic) [Example 230, (1R,2R,4R) and (1S,2S,4S)-2-Cyclopentyloxy-4-{4-[4-(2,2,2-trifluoro-ethyl)-piperazin-1-yl]-2-trifluoromethyl-benzenesulfonyl}-cyclopentanecarboxylic acid (1-cyano-cyclopropyl)-amide] | 0.0275
N#CC1(NC(=O)[C@@H]2C[C@@H](S(=O)(=O)c3ccccc3C(F)(F)F)C[C@H]2Oc2ccccc2)CC1 (racemic) [Example 231, (1R,2R,4R) and (1S,2S,4S)-2-Phenoxy-4-(2-trifluoromethyl-benzenesulfonyl)-cyclopentanecarboxylic acid (1-cyano-cyclopropyl)-amide] | 1.25
N#CC1(NC(=O)[C@@H]2C[C@@H](S(=O)(=O)c3ccccc3C(F)(F)F)C[C@H]2OCc2ccc(Cl)cc2)CC1 (racemic) [Example 232, (1R,2R,4R) and (1S,2S,4S)-2-(4-Chloro-benzyloxy)-4-(2-trifluoromethyl-benzenesulfonyl)-cyclopentanecarboxylic acid (1-cyano-cyclopropyl)-amide] | 1.85
N#CC1(NC(=O)[C@@H]2C[C@@H](S(=O)(=O)c3ccc(Cl)cc3Cl)C[C@H]2OCc2ccc(Cl)cc2)CC1 (racemic) [Example 233, (1R,2R,4R) and (1S,2S,4S)-2-(4-Chloro-benzyloxy)-4-(2,4-dichloro-benzenesulfonyl)-cyclopentanecarboxylic acid (1-cyano-cyclopropyl)-amide] | 10.5
CN1CCC(C#N)(NC(=O)[C@@H]2C[C@@H](S(=O)(=O)c3ccc(Cl)cc3Cl)C[C@H]2OCc2ccc(Cl)cc2)CC1 (racemic) [Example 234, (1R,2R,4R) and (1S,2S,4S)-2-(4-Chloro-benzyloxy)-4-(2,4-dichloro-benzenesulfonyl)-cyclopentanecarboxylic acid (4-cyano-1-methyl-piperidin-4-yl)-amide] | 19
CN1CCC(C#N)(NC(=O)[C@@H]2C[C@@H](S(=O)(=O)c3ccccc3C(F)(F)F)C[C@H]2OCc2ccc(Cl)cc2)CC1 (racemic) [Example 235, (1R,2R,4R) and (1S,2S,4S)-2-(4-Chloro-benzyloxy)-4-(2-trifluoromethyl-benzenesulfonyl)-cyclopentanecarboxylic acid (4-cyano-1-methyl-piperidin-4-yl)-amide] | 7.3
CO[C@@H]1C[C@H](S(=O)(=O)c2ccc(-c3cnn(C)c3)cc2C(F)(F)F)C[C@H]1C(=O)NC1(C#N)CCN(C)CC1 (racemic) [Example 236, (1R,2R,4R) and (1S,2S,4S)-2-Methoxy-4-[4-(1-methyl-1H-pyrazol-4-yl)-2-trifluoromethyl-benzenesulfonyl]-cyclopentanecarboxylic acid (4-cyano-1-methyl-piperidin-4-yl)-amide] | 1.8
CCOC(=O)N1CCC(C#N)(NC(=O)[C@@H]2C[C@@H](S(=O)(=O)c3ccc(-c4cnn(C)c4)cc3C(F)(F)F)C[C@H]2OC)CC1 (racemic) [Example 237, 4-Cyano-4-({(1R,2R,4R) and (1S,2S,4S)-2-methoxy-4-[4-(1-methyl-1H-pyrazol-4-yl)-2-trifluoromethyl-benzenesulfonyl]-cyclopentanecarbonyl}-amino)-piperidine-1-carboxylic acid ethyl ester] | 2.2
CCN1CCC(C#N)(NC(=O)[C@@H]2C[C@@H](S(=O)(=O)c3ccc(-c4cnn(C)c4)cc3C(F)(F)F)C[C@H]2OC)CC1 (racemic) [Example 238, (1R,2R,4R) and (1S,2S,4S)-2-Methoxy-4-[4-(1-methyl-1H-pyrazol-4-yl)-2-trifluoromethyl-benzenesulfonyl]-cyclopentanecarboxylic acid (4-cyano-1-ethyl-piperidin-4-yl)-amide] | 2.35
